In US20160166520A1, “METHODS AND COMPOSITIONS RELATING TO THE TREATMENT OF VISCERAL FAT AND ASTHMA” (YALE UNIVERSITY, priority 2014, published 2016):

Columns and labels:
Sirt1 [1] = target: T1, Sirt1 (Mus musculus, UniProt Q923E4); experiment: OVA aeroallergen-induced adaptive Th2 lung inflammation in mice treated with Sirt1 inhibitor; type: in vivo; details: OVA sensitized and challenged, 0.4 mg/kg body weight per day i.p. one hour before every antigen challenge, vs DMSO vehicle
T1 construct: from tissue; host or cells: whole living mice (WT and Chi3l1-/-); read-outs in lung/BAL and epididymal fat pads
T1 sequence (Q923E4 1-737): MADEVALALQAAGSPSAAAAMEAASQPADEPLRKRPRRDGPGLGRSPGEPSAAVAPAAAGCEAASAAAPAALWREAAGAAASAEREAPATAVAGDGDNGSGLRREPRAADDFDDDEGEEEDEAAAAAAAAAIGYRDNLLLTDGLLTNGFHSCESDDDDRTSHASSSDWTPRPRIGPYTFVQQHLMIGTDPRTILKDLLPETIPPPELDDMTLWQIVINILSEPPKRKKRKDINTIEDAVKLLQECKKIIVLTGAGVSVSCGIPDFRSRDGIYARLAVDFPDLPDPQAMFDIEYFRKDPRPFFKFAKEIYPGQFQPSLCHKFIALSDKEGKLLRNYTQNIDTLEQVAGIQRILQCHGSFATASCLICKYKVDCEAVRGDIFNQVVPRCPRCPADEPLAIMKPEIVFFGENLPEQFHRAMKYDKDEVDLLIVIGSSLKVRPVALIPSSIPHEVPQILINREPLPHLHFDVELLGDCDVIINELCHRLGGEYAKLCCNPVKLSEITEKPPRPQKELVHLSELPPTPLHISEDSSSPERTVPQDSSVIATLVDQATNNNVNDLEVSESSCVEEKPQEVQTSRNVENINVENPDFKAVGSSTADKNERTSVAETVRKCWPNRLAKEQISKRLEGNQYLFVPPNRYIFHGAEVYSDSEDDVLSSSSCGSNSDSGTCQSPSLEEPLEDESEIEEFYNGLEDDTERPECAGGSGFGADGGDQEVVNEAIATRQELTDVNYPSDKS
Method: WT and Chit3l1^−/− mice were sensitized and challenged with OVA (ova+) or PBS (ova−) and were treated with Sirtinol or its vehicle (DMSO). Each animal received drug (0.4 mg/kg body weight per day) or vehicle one hour before every antigen challenge. FIGS. 6A-6B depict BAL total cell and eosinophil recovery, FIG. 6C depicts H&E photomicrographs of lungs from WT and Chi3l1^−/− mice treated with sirtinol or vehicle after OVA challenge, FIGS. 6D-6H depict the levels of mRNA encoding IL-4, IL-13, IL-17, IL-6 and TNF-α in the lungs of WT and Chi3l1^−/− mice treated with Sirtinol or DMSO. The noted values represent the mean±SEM of a minimum of 5 animals. (*p≦0.05, **p≦0.01). Mice were sensitized and challenged with ovalbumin (OVA) as previously described (20). One day after last challenge, the mice were sacrificed, bronchoalveolar lavage (BAL) was undertaken, and tissue responses were evaluated. Sirtinol, a Sirt1 inhibitor (Enzo Life Sciences) or vehicle control (0.05% dimethyl sulofoxide) were diluted with Phosphate Buffered Saline (PBS) and administered via an intraperitoneal (i.p.) route.

Sirt1 [2] = target: T1, Sirt1; experiment: Visceral (epididymal) fat accumulation in mice treated with Sirt1 inhibitor; type: in vivo; details: 0.4 mg/kg body weight per day i.p. twice per week for 5 weeks, vs DMSO vehicle
Method: WT and Chi3l1^−/− mice were treated with Sirtinol or its vehicle (DMSO) and fat accumulation was assessed. Each animal received drug (0.4 mg/kg body weight per day) or vehicle twice per week for 5 weeks. FIG. 7A depicts a representative photograph illustrating abdominal fat accumulation, FIG. 7B depicts the weight of epididymal fat pads from WT and chi3l1^−/− mice. The noted values represent the mean±SEM of a minimum of 5 animals. (*P≦0.05, **p≦0.01). Sirtinol, a Sirt1 inhibitor (Enzo Life Sciences) or vehicle control (0.05% dimethyl sulofoxide) were diluted with Phosphate Buffered Saline (PBS) and administered via an intraperitoneal (i.p.) route.

- levels of visceral fat (Sirt1 [2]; Chi3l1 null mice): restored
- levels of visceral fat (Sirt1 [2]; WT mice): did not significantly alter
Structure (SMILES): CC(NC(=O)c1ccccc1/N=C/c1c(O)ccc2ccccc12)c1ccccc1 (stereo not shown) [Sirtinol]
- aeroallergen induced Th2 inflammation and Th2, IL-17 and IL-6 cytokine expression, and airway mucus (Sirt1 [1]; Chi3l1 null mice): restored
- aeroallergen-induced Th2 inflammation and Th2, IL-17 and IL-6 cytokine production and mucus production in the lung (Sirt1 [1]; WT mice): diminished
